Assay results published in patent US8188273B2, “Insecticidal (1,3,5)-triazinyl phenyl hydrazones” (Dow AgroSciences, LLC., priority 2007, dated 2012).

How the values were obtained:
[1] = tested on: beet armyworm (Spodoptera exigua); experiment: Insecticidal test on treated lepidopteran diet, beet armyworm; type: in vivo; conditions: 120 h, second-instar larvae on treated diet, 8 wells, dose of 50 mg/cm^2 [sic] (2000 ppm, 50 μL), dead insects counted 5 days after treatment, read-out: AVG LAPHEG 50 (percent control, beet army worm)
Protocol: (§1) The compounds identified in Table 1 were prepared according to the previous methods and were tested against beet armyworm and corn earworm as follows:
(§2) Insecticidal Test for Corn Earworm (Helicoverpa zea) and Beet Armyworm (Spodoptera exigua).
(§3) To prepare test solution, the test compound was formulated at 2000 ppm solution as 4 mg/2 mL of 9 acetone:1 tap water. 50 μL of the 2000 ppm (equivalent to 50 μg/cm^2 dose on diet surface area) test solution was pipetted upon the surface of 1 mL of lepidopteran diet (Southland Multi-Species Lepidopteran Diet) contained in each of eight wells per insect species (one well=1 replication). A second-instar corn earworm and beet armyworm was placed upon the treated diet in each well once the solvent had air-dried. Trays containing the treated diet and larvae were covered and then held in a growth chamber at 25° C., 50-55% RH, and 16 hr light:8 hr dark for 5 days. Observation were conducted 5 days after treatment and infestation. The number of dead insects of 8 per species per treatment was then determined and the results are given in Table 1 as a percent control at a dose of […].
(§4) Keys to the table: Mass spectral data were obtained using liquid chromatography mass spectroscopy (LC-MS). The masses are detected using electrospray ionization (ESI) and reported as Mol Ion (M+H, M−H); AVG LAPHEG 50 refers to activity against beet army worm (Spodoptera exigua) as defined above; AVG HELIZE 50 refers to activity against corn ear worm (Helicoverpa zea) as described above.

[2] = tested on: corn earworm (Helicoverpa zea); experiment: Insecticidal test on treated lepidopteran diet, corn earworm; type: in vivo; conditions: 120 h; second-instar larvae on treated diet, 8 wells; dose of 50 mg/cm^2 [sic] (2000 ppm, 50 μL); dead insects counted 5 days after treatment; read-out: AVG HELIZE 50 (percent control, corn ear worm)
Protocol: as §1, §2, §3, §4

SMILES | pest or weed control at 2000 µg/mL [1] [%] | pest or weed control at 2000 µg/mL [2] [%]
FC(F)C(F)(F)Oc1ccc(/C=N/Nc2nc(Nc3ccc(OC(F)(F)F)cc3)nc(N3CCOCC3)n2)cc1 [Compound 1, (4-Morpholin-4-yl-6-{N′-[4-(1,1,2,2-tetrafluoroethoxy)benzylidene]hydrazino}-1,3,5-triazin-2-yl)-(4-trifluoromethoxyphenyl)amine] | 100 | 100
Fc1ccc(Nc2nc(NCc3ccc(Cl)nc3)nc(N/N=C/c3ccc(OC(F)(F)F)cc3)n2)cc1C(F)(F)F [Compound 2, N-(6-Chloropyridin-3-ylmethyl)-N′-(4-fluoro-3-trifluoromethylphenyl)-6-{N′-[1-(4-trifluoromethoxyphenyl)-methylidene]-hydrazino}-[1,3,5]triazine-2,4-diamine] | 100 | 100
Fc1ccc(Nc2ncnc(N/N=C/c3ccc(OC(F)(F)F)cc3)n2)cc1C(F)(F)F [Compound 3, (4-Fluoro-3-trifluoromethylphenyl)-(4-{N′-[1-(4-trifluoromethoxyphenyl)-methylidene]-hydrazino}-[1,3,5]triazin-2-yl)-amine] | 100 | 100
FC(F)(F)Oc1ccc(/C=N/Nc2nc(Nc3ccc(OC(F)(F)F)cc3)nc(N3CCOCC3)n2)cc1 [Compound 4] | 100 | 100
C/C(=N\Nc1nc(Nc2ccc(OC(F)(F)F)cc2)nc(N2CCOCC2)n1)c1cccc(C#N)c1 [Compound 5] | 100 | 100
O=C1CN(c2nc(N/N=C/c3ccc(OC(F)(F)F)cc3)nc(Nc3ccc(OC(F)(F)F)cc3)n2)CCN1 [Compound 6] | 100 | 100
O=C1CN(c2nc(N/N=C/c3cccc(C(F)(F)F)c3)nc(Nc3ccc(OC(F)(F)F)cc3)n2)CCN1 [Compound 7] | 100 | 100
CCOc1nc(N/N=C/c2ccc(OC(F)(F)F)cc2)nc(Nc2ccc(OC(F)(F)F)cc2)n1 [Compound 8] | 25 | 25
CCOc1nc(N/N=C/c2cccc(C(F)(F)F)c2)nc(Nc2ccc(OC(F)(F)F)cc2)n1 [Compound 10] | 13 | 0
CCOc1nc(N/N=C/c2ccc(F)cc2)nc(Nc2ccc(OC(F)(F)F)cc2)n1 [Compound 11] | 13 | 100
CCOc1nc(N/N=C/c2ccc(OC(F)(F)F)cc2)nc(Nc2cccc(C(F)(F)F)c2)n1 [Compound 12] | 100 | 100
CCOc1nc(N/N=C/c2cccc(C(F)(F)F)c2)nc(Nc2cccc(C(F)(F)F)c2)n1 [Compound 13] | 0 | 75
CCOc1nc(N/N=C/c2ccc(OC)cc2)nc(Nc2cccc(C(F)(F)F)c2)n1 [Compound 14] | 25 | 13
COCCNc1nc(N/N=C/c2ccc(OC(F)(F)F)cc2)nc(Nc2ccc(OC(F)(F)F)cc2)n1 [Compound 15] | 100 | 88
CCNc1nc(N/N=C/c2ccc(OC(F)(F)F)cc2)nc(Nc2ccc(OC(F)(F)F)cc2)n1 [Compound 16] | 13 | 0
COCCNc1nc(N/N=C/c2ccc(F)cc2)nc(Nc2ccc(OC(F)(F)F)cc2)n1 [Compound 17] | 50 | 63
CCNc1nc(N/N=C/c2ccc(F)cc2)nc(Nc2ccc(OC(F)(F)F)cc2)n1 [Compound 18] | 75 | 38
COCCNc1nc(N/N=C/c2ccc(OC(F)(F)F)cc2)nc(Nc2cccc(C(F)(F)F)c2)n1 [Compound 19] | 100 | 75
FC(F)(F)Oc1ccc(/C=N/Nc2nc(NCCN3CCOCC3)nc(Nc3ccc(OC(F)(F)F)cc3)n2)cc1 [Compound 21] | 100 | 100
COCCN(C)c1nc(N/N=C/c2ccc(OC(F)(F)F)cc2)nc(Nc2ccc(OC(F)(F)F)cc2)n1 [Compound 22] | 50 | 13
CCOC(=O)CN(C)c1nc(N/N=C/c2ccc(OC(F)(F)F)cc2)nc(Nc2ccc(OC(F)(F)F)cc2)n1 [Compound 23] | 25 | 0
COCC(C)Nc1nc(N/N=C/c2ccc(OC(F)(F)F)cc2)nc(Nc2ccc(OC(F)(F)F)cc2)n1 (stereo not shown) [Compound 24] | 100 | 100

SMILES | pest or weed control at 2000 µg/mL [1] [%] | pest or weed control at 2000 µg/mL [2] [%]
CCOCCNc1nc(N/N=C/c2ccc(OC(F)(F)F)cc2)nc(Nc2ccc(OC(F)(F)F)cc2)n1 [Compound 25] | 100 | 100
CCOC(=O)CNc1nc(N/N=C/c2ccc(OC(F)(F)F)cc2)nc(Nc2ccc(OC(F)(F)F)cc2)n1 [Compound 26] | 50 | 100
FC(F)(F)COc1nc(N/N=C/c2cccc(Cl)c2)nc(Nc2ccc(OC(F)(F)F)cc2)n1 [Compound 27] | 100 | 100
FC(F)C(F)(F)Oc1cccc(/C=N/Nc2nc(Nc3ccc(OC(F)(F)F)cc3)nc(OCC(F)(F)F)n2)c1 [Compound 28] | 100 | 100
FC(F)(F)COc1nc(N/N=C/c2cccc(Br)c2)nc(Nc2ccc(OC(F)(F)F)cc2)n1 [Compound 29] | 100 | 100
FC(F)(F)COc1nc(N/N=C/c2ccc(Cl)c(Cl)c2)nc(Nc2ccc(OC(F)(F)F)cc2)n1 [Compound 30] | 100 | 100
Fc1ccccc1/C=N/Nc1nc(Nc2ccc(OC(F)(F)F)cc2)nc(OCC(F)(F)F)n1 [Compound 31] | 100 | 100
FC(F)(F)COc1nc(N/N=C/c2ccccc2C(F)(F)F)nc(Nc2ccc(OC(F)(F)F)cc2)n1 [Compound 32] | 100 | 100
Fc1cc(/C=N/Nc2nc(Nc3ccc(OC(F)(F)F)cc3)nc(OCC(F)(F)F)n2)ccc1Cl [Compound 33] | 100 | 100
FC(F)(F)COc1nc(N/N=C/c2ccccc2Br)nc(Nc2ccc(OC(F)(F)F)cc2)n1 [Compound 34] | 100 | 100
FC(F)(F)COc1nc(N/N=C/c2c(Cl)cccc2Cl)nc(Nc2ccc(OC(F)(F)F)cc2)n1 [Compound 35] | 100 | 100
FC(F)(F)COc1nc(N/N=C/c2ccccc2OC(F)(F)F)nc(Nc2ccc(OC(F)(F)F)cc2)n1 [Compound 36] | 100 | 100
FC(F)(F)Oc1ccc(Nc2nc(N/N=C/c3cccc(Cl)c3)nc(N3CCOCC3)n2)cc1 [Compound 37] | 75 | 100
FC(F)(F)Oc1ccc(Nc2nc(N/N=C/c3cccc(Br)c3)nc(N3CCOCC3)n2)cc1 [Compound 38] | 0 | 100
FC(F)(F)Oc1ccc(Nc2nc(N/N=C/c3ccc(Cl)c(Cl)c3)nc(N3CCOCC3)n2)cc1 [Compound 39] | 88 | 100
FC(F)(F)Oc1ccc(Nc2nc(N/N=C/c3ccc(Cl)cc3Cl)nc(N3CCOCC3)n2)cc1 [Compound 40] | 25 | 0
FC(F)(F)Oc1ccc(Nc2nc(N/N=C/c3ccccc3C(F)(F)F)nc(N3CCOCC3)n2)cc1 [Compound 41] | 13 | 0
Fc1cc(/C=N/Nc2nc(Nc3ccc(OC(F)(F)F)cc3)nc(N3CCOCC3)n2)ccc1Cl [Compound 42] | 88 | 100
FC(F)(F)Oc1ccc(Nc2nc(N/N=C/c3ccccc3Br)nc(N3CCOCC3)n2)cc1 [Compound 43] | 13 | 0
FC(F)(F)Oc1ccc(Nc2nc(N/N=C/c3c(Cl)cccc3Cl)nc(N3CCOCC3)n2)cc1 [Compound 44] | 13 | 0
FC(F)(F)Oc1ccc(Nc2nc(N/N=C/c3ccccc3OC(F)(F)F)nc(N3CCOCC3)n2)cc1 [Compound 45] | 38 | 13
CC1CN(c2nc(N/N=C/c3ccc(OC(F)(F)F)cc3)nc(Nc3ccc(F)c(C(F)(F)F)c3)n2)CC(C)O1 (stereo not shown) [Compound 46] | 100 | 100
